pIC50: −log10 of the molar value.
Experiments:
[1] = biological target: T1, CYP2C8 (Homo sapiens, UniProt P10632); assay: Time-dependent inhibition (IC50 shift) of CYP2C8 in human liver microsomes; conditions: microsomes
T1 sequence (P10632 1-490): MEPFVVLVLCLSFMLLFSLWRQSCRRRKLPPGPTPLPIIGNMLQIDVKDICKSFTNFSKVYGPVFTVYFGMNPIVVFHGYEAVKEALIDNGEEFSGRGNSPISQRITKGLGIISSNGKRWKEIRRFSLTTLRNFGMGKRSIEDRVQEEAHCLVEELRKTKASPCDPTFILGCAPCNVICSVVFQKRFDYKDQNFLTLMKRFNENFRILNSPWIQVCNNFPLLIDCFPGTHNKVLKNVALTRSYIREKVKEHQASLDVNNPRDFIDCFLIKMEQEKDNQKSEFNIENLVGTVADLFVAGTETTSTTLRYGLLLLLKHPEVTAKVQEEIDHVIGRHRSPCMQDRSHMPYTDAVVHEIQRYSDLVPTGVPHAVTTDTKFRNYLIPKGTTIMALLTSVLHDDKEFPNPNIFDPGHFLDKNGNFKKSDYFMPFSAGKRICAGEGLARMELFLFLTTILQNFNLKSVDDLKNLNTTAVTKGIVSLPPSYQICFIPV
Experimental: Donors CMV negative for serology are unm
All incubations were conducted in duplicate.
% remaining=(C+I/C^−I)*100

[2] = biological target: T2, CYP2B6 (Homo sapiens, UniProt P20813); assay: biochemical
T2 sequence (P20813 1-491): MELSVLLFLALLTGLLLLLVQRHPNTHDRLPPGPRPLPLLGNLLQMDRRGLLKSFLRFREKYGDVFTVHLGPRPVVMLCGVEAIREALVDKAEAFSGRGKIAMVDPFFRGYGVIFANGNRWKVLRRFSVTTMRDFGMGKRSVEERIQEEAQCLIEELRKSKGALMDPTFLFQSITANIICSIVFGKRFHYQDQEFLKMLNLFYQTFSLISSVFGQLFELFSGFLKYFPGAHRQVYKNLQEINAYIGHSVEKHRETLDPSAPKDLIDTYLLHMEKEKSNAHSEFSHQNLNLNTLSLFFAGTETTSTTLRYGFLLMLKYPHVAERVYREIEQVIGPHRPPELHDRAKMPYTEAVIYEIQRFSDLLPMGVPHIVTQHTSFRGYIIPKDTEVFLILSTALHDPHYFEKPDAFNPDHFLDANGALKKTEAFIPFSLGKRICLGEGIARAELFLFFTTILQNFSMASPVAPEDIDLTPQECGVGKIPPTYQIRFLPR

[3] = urine; cited from earlier work

## Cc1ccc(C)c(OCCCC(C)(C)C(=O)O[C@@H]2O[C@H](C(=O)O)[C@@H](O)[C@H](O)[C@H]2O)c1 [Gemfibrozil glucuronide, reference compound]
[1]
  pIC50: 6.12

## CC(=O)N1CCN(c2ccc(OCC3COC(Cn4ccnc4)(c4ccc(Cl)cc4Cl)O3)cc2)CC1 (stereo not drawn) [Ketoconazole, reference compound]
[2]
  pIC50: 5.47

## Cc1ncc2n1-c1ccc(Cl)cc1C(c1ccccc1F)=NC2 [midazolam, 8-chloro-6-(2-fluorophenyl)-1-methyl-4H-imidazo[1,5-a][1,4]]
[3]
  dose excreted unchanged: 1%

From patent publication US20220168307A1, “TREATMENT OF SMA” (Hoffmann-La Roche Inc., priority 2019, published 2022)
